Assay results: patent US6894059B1, “Compounds and methods for treatment of asthma, allergy and inflammatory disorders” (UCB S.A., priority 1999, dated 2005)
Where a name gives a salt, the structure may show the parent alone.

Columns and labels:
human cloned H1 receptor = target: T1, human cloned H1 receptor (Homo sapiens, UniProt P35367); test: CHO-K1 H1R binding assay (3H-pyrilamine displacement); settings: CHO-K1 membranes, 3H-pyrilamine 2 nM, 3 hours at 37° C.; read-out: CHOH1 KI
T1 construct: expressed in transfected cells; host or cells: CHO-K1
T1 sequence (P35367 whole entry): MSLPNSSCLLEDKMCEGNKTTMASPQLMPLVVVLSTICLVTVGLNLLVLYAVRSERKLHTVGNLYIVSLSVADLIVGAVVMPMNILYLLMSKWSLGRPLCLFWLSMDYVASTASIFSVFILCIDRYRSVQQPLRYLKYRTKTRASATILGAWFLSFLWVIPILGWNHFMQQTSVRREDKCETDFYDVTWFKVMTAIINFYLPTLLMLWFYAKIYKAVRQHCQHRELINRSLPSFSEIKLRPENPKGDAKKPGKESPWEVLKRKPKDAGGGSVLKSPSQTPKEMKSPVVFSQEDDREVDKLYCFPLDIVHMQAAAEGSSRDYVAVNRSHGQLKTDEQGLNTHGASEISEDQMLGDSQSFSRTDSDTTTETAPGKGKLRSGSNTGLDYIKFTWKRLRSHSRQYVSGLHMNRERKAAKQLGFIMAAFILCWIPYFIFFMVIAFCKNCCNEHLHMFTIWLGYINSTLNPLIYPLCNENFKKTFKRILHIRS
Method: CHO—K1 cells expressing the human cloned H1 receptor are grown to confluence in tissue culture dishes. Cells are harvested using D-PBS buffer (JRH Biosciences), kept at 4° C., centrifuging to pellet cells (4° C., 500 g, 10 min). The final cell pellet is homogenized and resuspended using Tris/sucrose buffer (20 mM Tris, 250 mM sucrose, pH 74 at 4° C. Aliquots of the membrane preparation are stored at −70° C.
On the day of assay, the membrane preparation is thawed and centrifuged (TLA100.3 rotor, 4° C., 15 min, 23,000 rpm). The pellet is resuspended in Tris/sucrose buffer initially and then diluted further as necessary using assay buffer A (50 mM Na/KPO4, 2 mM MgCl2, 0.5% (w/v) BSA, pH 7.5).
For the binding assay, the membrane preparation, test compound and ^3H-pyrilamine (2 nM final) in buffer A with 1% (v/v) DMSO final are incubated in a 96-well polypropylene plate for 3 hours at 37° C. Non-specific binding is determined in the presence of 10 μM pyrilamine. A 96-well harvester (Packard) is used to harvest the 96-well plate onto a GF/B filter plate pre-treated with 0.1% (v/v) PEI. The plate is counted in a Packard Topcounter after adding Microscint 20 (Packard) scintillation fluid. The Ki for each compound at the histamine H1 receptor is then calculated from these counts.

[1] = target: T2, human 5-lipoxygenase enzyme (Homo sapiens, UniProt P09917); test: Inhibition of LTB4 production in human whole blood stimulated with calcium ionophore A23187; format: cell-based; settings: A23187 50 μM, LTB4 by EIA, read-out: HWB IC50
T2 construct: Blood is drawn from normal human volunteers into tubes containing heparin; endogenous in cells; host or cells: human whole blood, heparinized, stimulated with A23187
T2 sequence (P09917 1-674): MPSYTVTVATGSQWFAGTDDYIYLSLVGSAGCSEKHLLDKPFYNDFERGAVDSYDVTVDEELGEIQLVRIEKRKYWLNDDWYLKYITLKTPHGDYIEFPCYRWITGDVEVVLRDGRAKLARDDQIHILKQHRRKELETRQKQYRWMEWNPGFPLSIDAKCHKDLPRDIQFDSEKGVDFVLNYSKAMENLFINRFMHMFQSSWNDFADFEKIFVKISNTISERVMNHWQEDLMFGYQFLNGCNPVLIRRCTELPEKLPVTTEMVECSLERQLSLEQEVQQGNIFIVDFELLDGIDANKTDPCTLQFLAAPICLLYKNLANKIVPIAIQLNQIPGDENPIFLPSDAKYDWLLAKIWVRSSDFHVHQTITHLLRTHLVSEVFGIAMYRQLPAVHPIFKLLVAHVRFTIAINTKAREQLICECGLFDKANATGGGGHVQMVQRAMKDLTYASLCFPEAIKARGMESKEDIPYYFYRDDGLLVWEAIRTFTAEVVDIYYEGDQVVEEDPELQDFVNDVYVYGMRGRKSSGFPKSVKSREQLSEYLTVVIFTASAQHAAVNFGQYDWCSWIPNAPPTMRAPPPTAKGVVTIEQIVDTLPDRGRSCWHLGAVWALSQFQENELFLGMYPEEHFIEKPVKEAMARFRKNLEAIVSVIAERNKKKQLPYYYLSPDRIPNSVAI
Method: This assay examines the ability of a compound to inhibit leukotriene B4 Production from human blood stimulated with calcium ionophore. As this production of leukotriene B4 is mediated via the activation of the 5-lipoxygenase enzyme, this assay is predictive of a compound's ability to inhibit the human 5-lipoxygenase enzyme.
The procedure for the assay is as follows. Blood is drawn from normal human volunteers into tubes containing heparin. 1 ml of the heparinized blood is pipetted into a 1.5 ml polypropylene tube. To this sample is added either different concentrations of the test compound (5 μl) dissolved in DMSO or 5 μl of DMSO as a vehicle control. These samples are incubated in a water bath, at […] for 15 min. […] From this a percent inhibition of LTB4 production by each concentration of test compound is calculated and the IC50 for inhibition of LTB4 production for each test compound is determined.

Row | SMILES | melting point | also measured
1 | NC(=O)c1cc(C#CCCN(O)C(N)=O)ccc1OCCN1CCN([C@H](c2ccccc2)c2ccc(Cl)cc2)CC1 [Compound 35, 2-(2-{4-[(1R)(4-chlorophenyl)phenylmethyl]piperazinyl}ethoxy)-5-[4-(aminohydroxycarbonyl-amino)but-1-ynyl]benzamide] | 156 to 158 °C | –
2 | NC(=O)c1cc(C#CCCN(O)C(N)=O)ccc1OCCN1CCN([C@H](c2ccccc2)c2ccc(Cl)cc2)CC1 (as salt: citrate) [Compound 93, 5-{4-[(aminocarbonyl) (hydroxy)amino]-1-butynyl}-2-(2-{4-[(R)-(4-chlorophenyl)(phenyl)methyl]-1-piperazinyl}ethoxy)benzamide] | 153 to 156 °C | –
3 | NC(=O)N(O)CCCOc1ccc(CCCN2CCN([C@H](c3ccccc3)c3ccc(Cl)cc3)CC2)cc1 [Compound 94, N-{3-[4-[3-{4-[(R)-(4-chlorophenyl)(phenyl)methyl]-1-piperazinyl}propyl]phenoxy]propyl}-N-hydroxyurea] | 64 to 66 °C | –
4 | NC(=O)N(O)CCCCc1ccc(OCCCN2CCN([C@H](c3ccccc3)c3ccc(Cl)cc3)CC2)cc1 [Compound 79, N-{4-[4-(3-{4-[(1R)(4-chlorophenyl)phenylmethyl]piperazinyl}propoxy)phenyl]butyl}amino-N-hydroxyamide] | 60 to 65 °C | –
5 | NC(=O)c1cc(C#CCCN(O)C(N)=O)ccc1OCCN1CCN([C@H](c2ccccc2)c2ccc(Cl)cc2)CC1 (as salt: HCl) [Compound 64, 2-(2-{4-[(1R)(4-chlorophenyl)phenylmethyl]piperazinyl}ethoxy)-5-[4-(aminohydroxycarbonyl-amino)but-1-ynyl]benzamide] | 208 °C | –
6 | NC(=O)N(O)CCCCc1ccc(OCCN2CCN(C(c3ccc(F)cc3)c3ccc(F)cc3)CC2)cc1 [Compound 88, N-{4-[4-(2-{4-[bis(4-fluorophenyl)methyl]-1-piperazinyl}ethoxy)phenyl]butyl}-N-hydroxyurea] | 140 to 145 °C | –
7 | NC(=O)c1cc(C#CCCN(O)C(N)=O)ccc1OCCN1CCN([C@H](c2ccccc2)c2ccc(Cl)cc2)CC1 (as salt: fumarate) [Compound 89, 5-{4-[(aminocarbonyl) (hydroxy)amino]-1-butynyl}-2-(2-{4-[(R)-(4-chlorophenyl)(phenyl)methyl]-1-piperazinyl}ethoxy)benzamide] | 162 to 165 °C | –
8 | NC(=O)c1cc(C#CCCN(O)C(N)=O)ccc1OCCN1CCN([C@H](c2ccccc2)c2ccc(Cl)cc2)CC1 (as salt: tartrate) [Compound 92, 5-{4-[(aminocarbonyl) (hydroxy)amino]-1-butynyl}-2-(2-{4-[(R)-(4-chlorophenyl)(phenyl)methyl]-1-piperazinyl}ethoxy)benzamide] | 155 to 158 °C | –
9 | NC(=O)c1cc(C#CCCN(O)C(N)=O)ccc1OCCN1CCN([C@H](c2ccccc2)c2ccc(Cl)cc2)CC1 (as salt: maleate) [Compound 91, 5-{4-[(aminocarbonyl) (hydroxy)amino]-1-butynyl}-2-(2-{4-[(R)-(4-chlorophenyl)(phenyl)methyl]-1-piperazinyl}ethoxy)benzamide] | 169 to 172 °C | –
10 | NC(=O)c1cc(CCCCN(O)C(N)=O)ccc1OCCN1CCN(C(c2ccc(F)cc2)c2ccc(F)cc2)CC1 [Compound 85, 5-{4-[(aminocarbonyl) (hydroxy)amino]butyl}-2-(2-{4-[bis(4-fluorophenyl)methyl]-1-piperazinyl}ethoxy)benzamide] | 138 to 140 °C | –
11 | NC(=O)N(O)CCCc1ccc(OCCCN2CCN([C@H](c3ccccc3)c3ccc(Cl)cc3)CC2)cc1 [Compound 82, N-{3-[4-(3-{4-[(1R)(4-chlorophenyl)phenylmethyl]piperazinyl}propoxy)phenyl]propyl}amino-N-hydroxyamide] | 52 to 90 °C | –
12 | NC(=O)c1cc(CCCCN(O)C(N)=O)ccc1OCCCN1CCN([C@H](c2ccccc2)c2ccc(Cl)cc2)CC1 [Compound 84, 2-(3-{4-[(1R)(4-chlorophenyl)phenylmethyl]piperazinyl}propoxy)-5-[4-(aminohydroxycarbonyl-amino)butyl]benzamide] | 123 to 125 °C | –
13 | NC(=O)N(O)CCCCc1ccc(OCCCCN2CCN([C@H](c3ccccc3)c3ccc(Cl)cc3)CC2)cc1 (as salt: HCl) [Compound 76, N-{4-[4-(4-{4-[(1R)(4-chlorophenyl)phenylmethyl]piperazinyl}butoxy)phenyl]butyl}amino-N-hydroxyamide] | 121 to 123 °C | –
14 | CC(=O)Nc1cc(C#CCCN(O)C(N)=O)ccc1OCCN1CCN([C@H](c2ccccc2)c2ccc(Cl)cc2)CC1 [Compound 77, N-[2-(2-{4-[(1R)(4-chlorophenyl)phenylmethyl]piperazinyl}ethoxy)-5-[4-(aminohydroxycarbonyl-amino)but-1-ynyl]phenyl] acetamide] | 90 to 95 °C | –
15 | NC(=O)N(O)CCCCc1ccc(OCCN2CCN([C@H](c3ccccc3)c3ccc(Cl)cc3)CC2)cc1 [Compound 17, N-{4-[4-(2-{4-[(1R)(4-chlorophenyl)phenylmethyl]piperazinyl}ethoxy)phenyl]butyl}amino-N-hydroxyamide] | 148 to 150 °C | –
16 | NC(=O)N(O)CCC#Cc1ccc(OCCCN2CCN(C(c3ccc(F)cc3)c3ccc(F)cc3)CC2)cc1 [Compound 83, amino-N-{4-[4-(3-{4-[bis(4-fluorophenyl)methyl]piperazinyl}propoxy)phenyl]but-3-ynyl}-N-hydroxyamide] | 78 °C | –
17 | NC(=O)N(O)CCCc1ccc(OCCCN2CCN(C(c3ccc(F)cc3)c3ccc(F)cc3)CC2)cc1 [Compound 86, N-{3-[4-(3-{4-[bis(4-fluorophenyl)methyl]-1-piperazinyl}propoxy)phenyl]propyl}-N-hydroxyurea] | 30 to 80 °C | –
18 | NC(=O)N(O)CCC#Cc1ccc(OCC#CCN2CCN([C@H](c3ccccc3)c3ccc(Cl)cc3)CC2)cc1 [Compound 95, N-(4-{4-[(4-{4-[(R)(4-chlorophenyl)(phenyl)methyl]-1-piperazinyl}-2-butynyl)oxy]phenyl}-3-butynyl)-N-hydroxyurea] | 127 to 130 °C | –
19 | NC(=O)N(O)CCOCCN1CCN([C@@H](c2ccccc2)c2ccc(Cl)cc2)CC1 [Compound 22, N-[2-(2-{4-[(1R)(4-chlorophenyl)phenylmethyl]piperazinyl}ethoxy)ethyl] amino-N-hydroxyamide] | – | Ki (human cloned H1 receptor): 8 nM; IC50 [1]: 1470 nM
20 | NC(=O)c1cc(C#CCCN(O)C(N)=O)ccc1OCCCN1CCN([C@H](c2ccccc2)c2ccc(Cl)cc2)CC1 [Compound 62, 2-[3-{4-[(1R)(4-chlorophenyl)phenylmethyl]piperazinyl}propoxy)-5-[4-(aminohydroxycarbonyl-amino)but-1-ynyl]benzamide] | 153 to 155 °C | –
21 | NC(=O)N(O)CCC#Cc1ccc(OCCN2CCN(C(c3ccc(F)cc3)c3ccc(F)cc3)CC2)cc1[N+](=O)[O-] [Compound 87, N-{4-[4-(2-{4-[bis(4-fluorophenyl)methyl]-1-piperazinyl}ethoxy)-2-nitrophenyl]-3-butynyl}-N-hydroxyurea] | 65 to 70 °C | –
22 | NC(=O)N(O)CCC#Cc1ccc(OCCCCN2CCN(C(c3ccc(F)cc3)c3ccc(F)cc3)CC2)cc1 [Compound 80, amino-N-{4-[4-(4-{4-[bis(4-fluorophenyl)methyl]piperazinyl}butoxy)phenyl]but-3-ynyl}-N-hydroxyamide] | 64 to 68 °C | –
23 | NC(=O)N(O)CCC#Cc1ccc(OCCN2CCN([C@H](c3ccccc3)c3ccc(Cl)cc3)CC2)cc1[N+](=O)[O-] [Compound 90, N-{4-[4-(2-{4-[(R)-(4-chlorophenyl)(phenyl)methyl]-1-piperazinyl}ethoxy)-2-nitrophenyl]-3-butynyl}-N-hydroxyurea] | 70 to 75 °C | –
